Experimental data reported in patent US10945972B2, “Particulate materials” (Nektar Therapeutics, priority 2002, dated 2021).
Where two headings read alike, the source gives them in different places. Blank lines part the entries; values can stand above or below the compound they belong to.

Key:
[1] = Electrostatic charge in Faraday well (Example 3); format: physicochemical
Excerpt: Surface charge was examined by placing weighed portions of the samples in a Faraday well to measure their electrostatic charge.

[2] = Simple adhesion test in rotated glass jar (Example 3); format: physicochemical; details: glass jar rotated for 5 minutes
Protocol: In this test, a small quantity of powder was weighed into a screw topped glass jar and the jar rotated for 5 minutes. The non-adhering powder was then tipped from the jar and weighed and the percentage powder adhering to the walls of the jar calculated.

[3] = Particle size by AeroSizer time-of-flight (Example 1); format: physicochemical; details: aerodynamic-equivalent volume mean diameter
Protocol: (§1) PSD measurements were performed using firstly, AEROSIZER® time-of-flight instrument equipped with AERO-[…]® (TSI Inc., Minneapolis. USA) and secondly, laser diffraction sensor Helos with dry-powder air-dispersion system Rodos (Sympatec GmbH. Germany). The volume mean particle diameter, VMD, was obtained for both instruments using software options. In the general case of non-spherical particles, these instruments cannot provide the exact value of VMD, however, the time-of-flight technique gives an aerodynamic-equivalent particle diameter, whereas the laser diffraction method provides the geometric projection-equivalent diameter. These diameters afford the complementary information on PSD and therefore can be used for comparative size analysis.

[4] = Particle size by Helos/Rodos laser diffraction (Example 1); format: physicochemical; details: geometric projection-equivalent volume mean diameter
Protocol: as §1

[5] = Inverse gas chromatography surface energy (Example 1); format: physicochemical; details: 303K
Excerpt: For TBS and FHBr powders, IGC was done using a Hewlett Packard Series 6890 instrument which was specifically modified for IGC measurements by Surface Measurement Systems Ltd (Manchester, UK). The IGC method is described in detail by Tong et al. 2001. (Tong H. H. Y., B. Y. Shekunov, P. York, A. H. L. Chow, 2001. Pharm. Res. 18, 852.) Triplicate measurements in separate packed columns were made. […] The γS^D and ΔGA values were obtained at 303K.

[6] = BET nitrogen adsorption specific surface area (Example 2); format: physicochemical
Protocol: Data on specific surface areas required for IGC studies were determined by BET nitrogen adsorption using a Surface Area Analyzer Coulter SA 3100 (Coulter Corp., Miami, Fla., USA). Samples were placed in glass sample holders and out-gassed with helium (purity >99.999%) at 40° C. for 16 hours before analysis. Nitrogen (purity >99.999%) was used as adsorbate and BET surface area was recorded as specific surface area of the samples. All measurements were performed in triplicate using the same batch of each material.

[7] = Laser diffraction particle size analysis HELOS/RODOS (Example 2); format: physicochemical; details: listed as S-SX
Protocol: The instrument consisted of laser diffraction sensor HELOS and dry-powder air-dispersion system RODOS (Sympatec GmbH. Germany) with WINDOX OS computer interface. The dispersion process was controlled by means of adjusting pressure of the compressed air flow between 0.5 and 5 bar. […] All measurements were performed in triplicate. The particle shape factor, f, was calculated as f=Sv/Sv*. where Sv is the experimental specific surface area and Sv* is the specific surface area determined using the LD instrument assuming the particle sphericity.

[8] = Triboelectrification in turbula mixer, charge and adhesion; format: physicochemical; details: listed as S-SX
Protocol: (§2) Triboelectrification was undertaken against a stainless steel contact surface using either a turbula mixer or a cyclone separator. Triboelectrification in a turbula mixer (Glen Creston, UK) was carried out by agitating a powder sample for 5 minutes at 30 rpm in a 100 ml stainless steel vessel at ambient temperature and relative humidity. A sample was poured in a reproducible manner into a Faraday well connected to an electrometer (Keithley 610, Keithley Instruments, Reading, UK). Charge and mass of sample was then recorded to give specific charge before and after triboelectrification. % w/w adhesion to the inner surface of the mixing vessel was calculated from the original mass of sample and the mass of sample poured into the Faraday well. During triboelectrification in a cyclone separator, a powder was fed from a steel vibratory table into a venturi funnel. Compressed air (velocity 8 m/s. relative humidity below 10%, ambient temperature) was used to convey the powder from the venturi along a horizontal pipe into the cyclone separator. The Faraday well and force compensation load cell was fitted at the base of the cyclone and used to collect charged particles. Final specific charge was recorded for non-adhered powder residing in the Faraday well and, where possible, powder adhering to the cyclone wall was dislodged by a stream of air and its charge and mass recorded. In both cases, the results were obtained from triplicate measurements.

[9] = Triboelectrification in cyclone separator, charge and adhesion; format: physicochemical; details: listed as S-SX
Protocol: as §2

[10] = Bulk powder density (Example 2); format: physicochemical; details: listed as S-SX
[11] = Inverse gas chromatography of SX powders (Example 2); details: for KA: acidity parameter; for γs^D (mJ/m^2): column at 40° C.; for −ΔGA^SP (kJ/mol) Acetone: probe acetone; for −ΔGA^SP (kJ/mol) Chloroform: probe chloroform; for −ΔGA^SP (kJ/mol) Diethyl ether: probe diethyl ether; for −ΔGA^SP (kJ/mol) Ethyl acetate: probe ethyl acetate; for −ΔGA^SP (kJ/mol) Tetrahydrofuran: probe tetrahydrofuran

- Electrostatic Charge (nC/g) [1]: −23.1 nC/g
- Relative Powder Adhesion (to container walls) [2]: 8.6
Compound: salbutamol sulphate [Unprocessed]

- VMD (μm) (Time of flight) [3]: 1.6 μm
- VMD (μm) (laser diffraction) [4]: 3.56 μm
- γs^D (mJ/m^2) [5]: 34.55 mJ/m^2
- ΔGA (kJ/mol) Diethyl ether ([5]; probe diethyl ether): 12.65 kJ/mol
- SV (specific surface area) ([6]; listed as S-SX): 7.040
- mean particle size d4,3 ([7]; LD technique): 3.5 μm
- f (particle shape factor, f=Sv/Sv*) [7]: 3.78
- Q (nCg^−1) After mixing ([8]; 5 minutes at 30 rpm): −0.17 nCg^−1
- AD (% w/w), fraction of adhered material [8]: 1.5 % w/w
- Q (nCg^−1) Before mixing [8]: −0.52 nCg^−1
- AD (% w/w), fraction of adhered material [9]: 5.5 % w/w
- Q (nCg^−1) After mixing [9]: −34.6 nCg^−1
- Q (nCg^−1) Before mixing [9]: 4.9 nCg^−1
- bulk powder density [10]: about 0.1 g/cm^3
- magnitude of γS^D smaller than for M-SX and G-SX [11]: 15%
- KA ([11]; listed as S-SX): 0.110
- γs^D (mJ/m^2) ([11]; listed as S-SX): 32.476 mJ/m^2
- −ΔGA^SP (kJ/mol) Acetone ([11]; listed as S-SX): 3.797 kJ/mol
- −ΔGA^SP (kJ/mol) Chloroform ([11]; listed as S-SX): 0.153 kJ/mol
- −ΔGA^SP (kJ/mol) Dichloromethane ([11]; probe dichloromethane): 2.808 kJ/mol
- −ΔGA^SP (kJ/mol) Diethyl ether ([11]; listed as S-SX): 1.488 kJ/mol
- −ΔGA^SP (kJ/mol) Ethyl acetate ([11]; listed as S-SX): 2.705 kJ/mol
- −ΔGA^SP (kJ/mol) Tetrahydrofuran ([11]; listed as S-SX): 2.446 kJ/mol
Compound: OCc1cc(C(O)CNCCCCCCOCCCCc2ccccc2)ccc1O (stereo not drawn) [SX SEDS, salmeterol xinafoate]

- SV (specific surface area) [6]: 10.699
- KA [11]: 0.233
- γs^D (mJ/m^2) [11]: 36.972 mJ/m^2
- −ΔGA^SP (kJ/mol) Acetone [11]: 5.454 kJ/mol
- −ΔGA^SP (kJ/mol) Chloroform [11]: 1.885 kJ/mol
- −ΔGA^SP (kJ/mol) Diethyl ether [11]: 2.958 kJ/mol
- −ΔGA^SP (kJ/mol) Ethyl acetate [11]: 4.739 kJ/mol
- −ΔGA^SP (kJ/mol) Tetrahydrofuran [11]: 4.854 kJ/mol
Compound: OCc1cc(C(O)CNCCCCCCOCCCCc2ccccc2)ccc1O (stereo not drawn) [G-SX, Salmeterol xinafoate]
